Common to all, as to assay: In vitro antibacterial activity, agar dilution MIC
Common to all, as to assay type: cell-based
On the technique in general: In agar dilution the substance is mixed into plates at graded concentrations.

Assay [1] concerns Staphylococcus aureus A5177. The following applies: Staphylococcus aureus A5177 (organism code BB); BHI agar, 35-37 °C, 20 to 24 hours; unit assumed. The procedure:
(§1) Representative compounds of the present invention were assayed in vitro for antibacterial activity as follows: Twelve petri dishes containing successive aqueous dilutions of the test compound mixed with 10 mL of sterilized Brain Heart infusion (BHI) agar (Difco 0418-01-5) were prepared. Each plate was inoculated with 1:100 (or 1:10 for slow-growing strains, such as Micrococcus and Streptococcus) dilutions of up to 32 different microorganisms, using a Steers replicator block. […] In addition, a control plate, using BHI agar containing no test compound, was prepared and incubated at the beginning and end of each test.
(§2) An additional plate containing a compound having known susceptibility patterns for the organisms being tested and belonging to the same antibiotic class as the test compound was also prepared and incubated as a further control, as well as to provide test-to-test comparability.
(§3) After incubation, each plate was visually inspected. The minimum inhibitory concentration (MIC) was defined as the lowest concentration of drug yielding no growth, a slight haze, or sparsely isolated colonies on the inoculum spot as compared to the growth control.

Assay [2] has as its system Streptococcus bovis A-5169. The following applies: Streptococcus bovis A-5169 (organism code JJ); BHI agar, 35-37 °C, 20 to 24 hours; unit assumed. The procedure: as §1, §2, §3
Assay [3] deals with Staphylococcus aureus CMX 553. The following applies: Staphylococcus aureus CMX 553 (organism code FF); BHI agar, 35-37 °C, 20 to 24 hours; unit assumed. The procedure:
as §1, §2, §3

The subject of assay [4] is Streptococcus Pheumoniae GYR 1171. To be noted: Streptococcus Pheumoniae GYR 1171 (organism code YY); BHI agar, 35-37 °C, 20 to 24 hours; unit assumed. The procedure:
as §1, §2, §3

Assay [5] concerns Micrococcus luteus ATCC 4698. To be noted: Micrococcus luteus ATCC 4698 (organism code PP); BHI agar, 35-37 °C, 20 to 24 hours; unit assumed. The procedure: as §1, §2, §3
For assay [6], the system named is Staphylococcus aureus A-5278. To be noted: Staphylococcus aureus A-5278 (organism code CC); BHI agar, 35-37 °C, 20 to 24 hours; unit assumed. The procedure: as §1, §2, §3
Assay [7] concerns Streptococcus Pheumoniae 5649. The following applies: Streptococcus Pheumoniae 5649 (organism code ZZA); BHI agar, 35-37 °C, 20 to 24 hours; unit assumed. As for the experimental part:
as §1, §2, §3

For another assay, the system named is Escherichia coli SS. To be noted: Escherichia coli SS (organism code RR); BHI agar, 35-37 °C, 20 to 24 hours; unit assumed. As for the experimental part: as §1, §2, §3
Assay [8] deals with Staphylococcus aureus CMX 642A. To be noted: Staphylococcus aureus CMX 642A (organism code DD); BHI agar, 35-37 °C, 20 to 24 hours; unit assumed. The procedure: as §1, §2, §3
The subject of assay [9] is Nocardia Asteroides ATCC9970. The following applies: Nocardia Asteroides ATCC9970 (organism code VV); BHI agar, 35-37 °C, 20 to 24 hours; unit assumed. The procedure:
as §1, §2, §3

In assay [10] the test system is Micrococcus luteus ATCC 9341. To be noted: Micrococcus luteus ATCC 9341 (organism code OO); BHI agar, 35-37 °C, 20 to 24 hours; unit assumed. The procedure: as §1, §2, §3
Assay [11] deals with Streptococcus Pheumoniae ATCC6303. The following applies: Streptococcus Pheumoniae ATCC6303 (organism code XX); BHI agar, 35-37 °C, 20 to 24 hours; unit assumed. The procedure:
as §1, §2, §3

A further assay has as its system Escherichia coli DC-2. The following applies: Escherichia coli DC-2 (organism code SS); BHI agar, 35-37 °C, 20 to 24 hours; unit assumed. As for the experimental part:
as §1, §2, §3

For assay [12], the system named is Mycobacterium smegmatis ATCC 114. To be noted: Mycobacterium smegmatis ATCC 114 (organism code UU); BHI agar, 35-37 °C, 20 to 24 hours; unit assumed. The procedure:
as §1, §2, §3

The test system of assay [13] is Streptococcus Pheumoniae 5979. To be noted: Streptococcus Pheumoniae 5979 (organism code ZZ); BHI agar, 35-37 °C, 20 to 24 hours; unit assumed. As for the experimental part:
as §1, §2, §3

Assay [14] relates to Streptococcus pyogenes PIU 2548. The following applies: Streptococcus pyogenes PIU 2548 (organism code NN); BHI agar, 35-37 °C, 20 to 24 hours; unit assumed. As for the experimental part:
as §1, §2, §3

In assay [15] the test system is Streptococcus agalactiae CMX 508. The following applies: Streptococcus agalactiae CMX 508 (organism code KK); BHI agar, 35-37 °C, 20 to 24 hours; unit assumed. The procedure: as §1, §2, §3
The test system of assay [16] is Staphylococcus epidermidis 3519. The following applies: Staphylococcus epidermidis 3519 (organism code HH); BHI agar, 35-37 °C, 20 to 24 hours; unit assumed. The procedure: as §1, §2, §3
In assay [17] the test system is Enterococcus faecium ATCC 8043. To be noted: Enterococcus faecium ATCC 8043 (organism code II); BHI agar, 35-37 °C, 20 to 24 hours; unit assumed. As for the experimental part:
as §1, §2, §3

The test system of assay [18] is Streptococcus pyogenes 930. To be noted: Streptococcus pyogenes 930 (organism code MM); BHI agar, 35-37 °C, 20 to 24 hours; unit assumed. The procedure: as §1, §2, §3
The test system of the next assay is Escherichia coli JUHL. The following applies: Escherichia coli JUHL (organism code QQ); BHI agar, 35-37 °C, 20 to 24 hours; unit assumed. As for the experimental part:
as §1, §2, §3

Assay [19] deals with Staphylococcus aureus 1775. To be noted: Staphylococcus aureus 1775 (organism code GG); BHI agar, 35-37 °C, 20 to 24 hours; unit assumed. As for the experimental part: as §1, §2, §3
Assay [20] has as its system Staphylococcus aureus NCTC10649M. To be noted: Staphylococcus aureus NCTC10649M (organism code EE); BHI agar, 35-37 °C, 20 to 24 hours; unit assumed. The procedure: as §1, §2, §3
Another assay has as its system Candida albicans CCH 442. The following applies: Candida albicans CCH 442 (organism code TT); BHI agar, 35-37 °C, 20 to 24 hours; unit assumed. As for the experimental part: as §1, §2, §3
Assay [21] deals with Staphylococcus aureus ATCC 6538P. To be noted: Staphylococcus aureus ATCC 6538P (organism code AA); BHI agar, 35-37 °C, 20 to 24 hours; unit assumed. The procedure: as §1, §2, §3
The test system of assay [22] is Streptococcus pyogenes EES61. To be noted: Streptococcus pyogenes EES61 (organism code LL); BHI agar, 35-37 °C, 20 to 24 hours; unit assumed. As for the experimental part:
as §1, §2, §3

In assay [23] the test system is Haemophilis Influenzae DILL AMP R. The following applies: Haemophilis Influenzae DILL AMP R (organism code WW); BHI agar, 35-37 °C, 20 to 24 hours; unit assumed. As for the experimental part:
as §1, §2, §3

In EP1025114B1, “3'-N-MODIFIED 6-O-SUBSTITUTED ERYTHROMYCIN KETOLIDE DERIVATIVES HAVING ANTIBACTERIAL ACTIVITY” (priority 1997, dated 1999) one finds MIC data, which are given here for four compounds.

Values after ≈ are worked out from the molar mass of the structure shown.

In the case of `CC[C@H]1OC(=O)[C@H](C)C(=O)[C@H](C)[C@@H](O[C@@H]2O[C@H](C)C[C@H](N(C)C3CC3)[C@H]2O)[C@](C)(OCC=Cc2cnc3ccccc3c2)C[C@@H](C)C(=O)[C@H](C)[C@H]2NC(=O)O[C@@]21C` [Example 13, Compound of Formula (II); R is -CH2CH=CH-(3-quinolyl), R^p is H, W is absent, R^w is H, R^1 is cyclopropyl, R^2 is CH3], the MIC in [1] is 3.1 µg/mL; in assay [2], 0.2 µg/mL; in assay [3], 1.56 µg/mL; in assay [4], 0.03 µg/mL; in assay [5], 0.78 µg/mL; in [6], greater than 100 µg/mL. The MIC is 0.25 µg/mL in [7]; 3.1 µg/mL against Escherichia coli SS; 1.56 µg/mL in assay [8]; 3.1 µg/mL in assay [9]; 0.39 µg/mL in [10]; 0.03 µg/mL in assay [11]. For the same compound, the MIC against Escherichia coli DC-2 is greater than 100 µg/mL; in assay [12], 3.1 µg/mL; in assay [13], 16 µg/mL; in assay [14], 0.39 µg/mL; in [15], 0.2 µg/mL; in [16], 3.1 µg/mL. Also, the MIC in [17] is 0.39 µg/mL; in [18] it was greater than 100 µg/mL; against Escherichia coli JUHL, greater than 100 µg/mL; in assay [19], greater than 100 µg/mL; in [20], 3.1 µg/mL; with Candida albicans CCH 442 it was 50 µg/mL. In addition, the figures for the MIC in [21] and in assay [22] were 1.56 µg/mL and 0.1 µg/mL, respectively.

In assay [23], `CC[C@H]1OC(=O)[C@H](C)C(=O)[C@H](C)[C@@H](O[C@@H]2O[C@H](C)C[C@H](N(C)Cc3cccnc3)[C@H]2O)[C@](C)(OCC=Cc2cnc3ccccc3c2)C[C@@H](C)C(=O)[C@H](C)[C@H]2NC(=O)O[C@@]21C` [Example 21, Compound of Formula (II); R is -CH2CH=CH-(3-quinolyl), R^p is H, W is absent, R^w is H, R^1 is CH2-(3-pyridyl), R^2 is CH3] came in with an MIC of 4 µg/mL.

On to `CC[C@H]1OC(=O)[C@H](C)C(=O)[C@H](C)[C@@H](O[C@@H]2O[C@H](C)C[C@H](N(C)Cc3cccc(O)c3)[C@H]2O)[C@](C)(OCC=Cc2cnc3ccccc3c2)C[C@@H](C)C(=O)[C@H](C)[C@H]2NC(=O)O[C@@]21C` [Example 22, Compound of Formula (II); R is -CH2CH=CH-(3-quinolyl), R^p is H, W is absent, R^w is H, R^1 is CH2-(3-hydroxyphenyl), R^2 is CH3], for which the MIC in assay [1] was 0.39 µg/mL; in assay [2], 0.1 µg/mL; in assay [3], 0.39 µg/mL; in assay [4], 0.03 µg/mL; in assay [5], 0.1 µg/mL; in assay [6] it was greater than 100 µg/mL. Also, the MIC in assay [23] was found to be 4 µg/mL; in assay [7], 0.25 µg/mL; with Escherichia coli SS, 0.39 µg/mL; in [8], 0.39 µg/mL; in [9], 0.2 µg/mL; in [10] it was 0.1 µg/mL. For the same compound, the MIC in [11] was 0.03 µg/mL; against Escherichia coli DC-2, greater than 100 µg/mL; in assay [12] it was 0.78 µg/mL; in [14], 0.1 µg/mL; in [15], 0.1 µg/mL; in assay [16] it was 0.39 µg/mL. Moreover, the MIC was 0.1 µg/mL in assay [17]; 3.1 µg/mL in assay [18]; greater than 100 µg/mL in the assay with Escherichia coli JUHL; greater than 100 µg/mL in assay [19]; 0.39 µg/mL in assay [20]; greater than 100 µg/mL with Candida albicans CCH 442. The MIC was 0.2 µg/mL in assay [21] and 0.1 µg/mL in assay [22].

Consider `CC[C@H]1OC(=O)[C@H](C)[C@@H](O[C@H]2C[C@@](C)(OC)[C@@H](O)[C@H](C)O2)[C@H](C)[C@@H](O[C@@H]2O[C@H](C)C[C@H](N(C)C)[C@H]2O)[C@](C)(O)C[C@@H](C)C(=O)[C@H](C)[C@@H](O)[C@]1(C)O` [Ery. A, Erythromycin A, reference compound], for which the MIC is 3.1 µg/mL (≈ 4.22 µM) in [1]; 0.02 µg/mL (≈ 0.0273 µM) in [2]; 0.39 µg/mL (≈ 0.531 µM) in assay [3]; 0.06 µg/mL (≈ 0.0818 µM) in assay [4]; 0.2 µg/mL (≈ 0.273 µM) in [5]; greater than 100 µg/mL in assay [6]. Further, the MIC came out at 4 µg/mL (≈ 5.45 µM) in assay [23]; 16 µg/mL (≈ 21.8 µM) in assay [7]; 0.78 µg/mL (≈ 1.06 µM) in the assay with Escherichia coli SS; 0.39 µg/mL (≈ 0.531 µM) in assay [8]; 0.1 µg/mL (≈ 0.136 µM) in [9]; 0.05 µg/mL (≈ 0.0681 µM) in [10]. Besides, the MIC in [11] was 0.06 µg/mL (≈ 0.0818 µM); against Escherichia coli DC-2 it was greater than 100 µg/mL; in assay [12], 3.1 µg/mL (≈ 4.22 µM); in [14], 6.2 µg/mL (≈ 8.45 µM); in assay [15], 0.05 µg/mL (≈ 0.0681 µM); in assay [16], 0.39 µg/mL (≈ 0.531 µM). Moreover, the MIC was 0.05 µg/mL (≈ 0.0681 µM) in assay [17]; greater than 100 µg/mL in [18]; greater than 100 µg/mL against Escherichia coli JUHL; greater than 100 µg/mL in assay [19]; 0.39 µg/mL (≈ 0.531 µM) in assay [20]; greater than 100 µg/mL in the assay on Candida albicans CCH 442. For the same compound, the MIC is 0.2 µg/mL (≈ 0.273 µM) in assay [21] and 0.05 µg/mL (≈ 0.0681 µM) in assay [22].
